molecular target: T1, PD-1/PD-L1 (Homo sapiens, UniProt Q9NZQ7); test: PD-1/PD-L1 Homogenous Time-Resolved Fluorescence (HTRF) binding assay; conditions: PD-L1-His 10 nM, PD-1-Ig 20 nM
T1 construct: TVMV protease site linker (C); made in house; host or cells: HEK293T cells
Text: The ability of the compounds of the invention to bind to PD-L1 was investigated using a PD-1/PD-L1 Homogenous Time-Resolved Fluorescence (HTRF) binding assay.
Homogenous Time-Resolved Fluorescence (HTRF) binding assay.
The interaction of PD-1 and PD-L1 can be assessed using soluble, purified preparations of the extracellular domains of the two proteins. The PD-1 and PD-L1 protein extracellular domains were expressed as fusion proteins with detection tags, for PD-1, the tag was the Fc portion of Immunoglobulin (PD-1-Ig) and for PD-L1 it was the 6 histidine motif (PD-L1-His). All binding studies were performed in an HTRF assay buffer consisting of dPBS supplemented with 0.1% […] bovine serum albumin and 0.05% (v/v) Tween-20. For the h/PD-L1-His binding assay, inhibitors were pre-incubated with PD-L1-His (10 nM final) for 15 m in 4 μl of assay buffer, followed by addition of PD-1-Ig (20 nM final) in 1 μl of assay buffer and further incubation for 15 m. HTRF detection was achieved using europium crypate-labeled anti-Ig (1 nM final) and allophycocyanin (APC) labeled anti-His (20 nM final). Antibodies were diluted in HTRF detection buffer and 5 μl was dispensed on top of the binding reaction. […] Additional binding assays were established between the human proteins PD-1-Ig/PD-L2-His (20 & 5 nM, respectively) and CD80-His/PD-L1-Ig (100 & 10 nM, respectively). […]

T1 sequence (Q9NZQ7 18-239): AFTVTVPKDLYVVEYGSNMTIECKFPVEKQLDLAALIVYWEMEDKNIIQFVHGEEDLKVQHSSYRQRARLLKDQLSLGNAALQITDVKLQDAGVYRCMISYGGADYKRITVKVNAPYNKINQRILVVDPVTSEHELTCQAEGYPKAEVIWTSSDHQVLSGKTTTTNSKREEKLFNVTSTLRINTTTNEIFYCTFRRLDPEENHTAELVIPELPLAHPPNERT

Row | Structure (SMILES) | IC50
1 | Cc1c(COc2cc(OCc3cncc(C#N)c3)c(CN(C)Cc3ncn[nH]3)cc2Cl)cccc1-c1cccc(OCCCN2CCC(O)(CO)CC2)c1Cl [Example 2013, 5-((2-((((1H-1,2,4-triazol-5-yl)methyl)(methyl)amino)methyl)-4-chloro-5-((2′-chloro-3′-(3-(4-hydroxy-4-(hydroxymethyl)piperidin-1-yl)propoxy)-2-methyl-[1,1′-biphenyl]-3-yl)methoxy)phenoxy)methyl)nicotinonitrile] | 1.1 nM
2 | CC(=O)NC1CCN(CCCOc2cccc(-c3cccc(COc4cc(OCc5cncc(C#N)c5)c(CNc5nnn[nH]5)cc4Cl)c3C)c2C)CC1 [Example 1036, N-(1-(3-((3′-((4-(((1H-Tetrazol-5-yl)amino)methyl)-2-chloro-5-((5-cyanopyridin-3-yl)-methoxy)phenoxy)methyl)-2,2′-dimethyl-[1,1′-biphenyl]-3-yl)oxy)propyl)piperidin-4-yl)-acetamide] | 4.2 nM
3 | Cc1c(COc2cc(OCc3cncc(C#N)c3)c(CNCc3cnccn3)cc2Cl)cccc1-c1cccc(OCCCN2CC[C@@H](O)C2)c1C [Example 2020, (R)-5-((4-chloro-5-((3′-(3-(3-hydroxypyrrolidin-1-yl)propoxy)-2,2′-dimethyl-[1,1′-biphenyl]-3-yl)methoxy)-2-(((pyrazin-2-ylmethyl)amino)methyl)phenoxy)methyl)nicotinonitrile] | 2.7 nM
4 | Cc1c(COc2cc(OCc3cncc(C#N)c3)c(CNC(C(=O)O)c3cnn(C)c3)cc2Cl)cccc1-c1cccc(OCC2CCCN(C)C2)c1Cl (centres unmarked) [Example 1028, 2-((5-Chloro-4-((2′-chloro-2-methyl-3′-((1-methylpiperidin-3-yl)methoxy)-[1,1′-biphenyl]-3-yl)methoxy)-2-((5-cyanopyridin-3-yl)methoxy)benzyl)amino)-2-(1-methyl-1H-pyrazol-4-yl)acetic acid] | 1.9 nM
5 | Cc1c(COc2cc(OCc3cncc(C#N)c3)c(CN(C)CC(C)c3nnn[nH]3)cc2Cl)cccc1-c1cccc(OCCCN2CC[C@@H](O)C2)c1C (stereo partly drawn) [Example 1006, 5-((2-(((2-(1H-Tetrazol-5-yl)propyl)(methyl)amino)methyl)-4-chloro-5-((3′-(3-((R)-3-hydroxypyrrolidin-1-yl)propoxy)-2,2′-dimethyl-[1,1′-biphenyl]-3-yl)methoxy)phenoxy)methyl)nicotinonitrile] | 2.7 nM
6 | Cc1c(COc2cc(OCc3cncc(C#N)c3)c(CN(C)C(C)c3nnn[nH]3)cc2Cl)cccc1-c1cccc(OCCCNC[C@H](O)CO)c1C (stereo partly drawn) [Example 1030, 5-((2-(((1-(1H-Tetrazol-5-yl)ethyl)(methyl)amino)methyl)-4-chloro-5-((3′-(3-(((S)-2,3-dihydroxypropyl)amino)propoxy)-2,2′-dimethyl-[1,1′-biphenyl]-3-yl)methoxy)-phenoxy)methyl)nicotinonitrile] | 0.2 nM
7 | CC(=O)NC1CCN(CCCOc2cccc(-c3cccc(COc4cc(OCc5cncc(C#N)c5)c(CN5CCCCC5c5cc[nH]n5)cc4Cl)c3C)c2C)CC1 (centres unmarked) [Example 1053, N-(1-(3-((3′-((4-((2-(1H-Pyrazol-3-yl)piperidin-1-yl)methyl)-2-chloro-5-((5-cyano-pyridin-3-yl)methoxy)phenoxy)methyl)-2,2′-dimethyl-[1,1′-biphenyl]-3-yl)oxy)propyl)-piperidin-4-yl)acetamide] | 7.6 nM
8 | Cc1c(COc2cc(OCc3cncc(C#N)c3)c(CN3CCCCC3c3cnn(C)c3)cc2Cl)cccc1-c1cccc(OCC2CCCN(C)C2)c1Cl (centres unmarked) [Example 1022, 5-((4-Chloro-5-((2′-chloro-2-methyl-3′-((1-methylpiperidin-3-yl)methoxy)-[1,1′-biphenyl]-3-yl)methoxy)-2-((2-(1-methyl-1H-pyrazol-4-yl)piperidin-1-yl)methyl)phenoxy)-methyl)nicotinonitrile] | 1.3 nM
9 | Cc1c(COc2cc(OCc3cncc(C#N)c3)c(CNCc3cnc[nH]3)cc2Cl)cccc1-c1cccc(OC2CCN(C)CC2)c1Cl [Example 2047, 5-((2-((((1H-imidazol-5-yl)methyl)amino)methyl)-4-chloro-5-((2′-chloro-2-methyl-3′-((1-methylpiperidin-4-yl)oxy)-[1,1′-biphenyl]-3-yl)methoxy)phenoxy)methyl)nicotinonitrile] | 3.5 nM
10 | CC(=O)NC1CCN(CCCOc2cccc(-c3cccc(COc4cc(OCc5cncc(C#N)c5)c(CN5CCC(c6nnn[nH]6)C5)cc4Cl)c3C)c2C)CC1 (centres unmarked) [Example 1042, N-(1-(3-((3′-((4-((3-(1H-Tetrazol-5-yl)pyrrolidin-1-yl)methyl)-2-chloro-5-((5-cyano-pyridin-3-yl)methoxy)phenoxy)methyl)-2,2′-dimethyl-[1,1′-biphenyl]-3-yl)oxy)propyl)-piperidin-4-yl)acetamide] | 0.2 nM
11 | Cc1c(COc2cc(OCc3cncc(C#N)c3)c(CN(C)Cc3nn(C)cc3Cl)cc2Cl)cccc1-c1cccc(OCCCN2CC[C@@H](O)C2)c1C [Example 2027, (R)-5-((4-chloro-2-((((4-chloro-1-methyl-1H-pyrazol-3-yl)methyl)(methyl)amino)methyl)-5-((3′-(3-(3-hydroxypyrrolidin-1-yl)propoxy)-2,2′-dimethyl-[1,1′-biphenyl]-3-yl)methoxy)phenoxy)methyl)nicotinonitrile] | 2.3 nM

Now from value to molecule:

Row | IC50 | Structure (SMILES)
12 | 16.9 nM | Cc1c(COc2cc(OCc3cncc(C#N)c3)c(CNCc3cccnn3)cc2Cl)cccc1-c1cccc(OCc2cncnc2)c1Cl [Example 2061, 5-((4-chloro-5-((2′-chloro-2-methyl-3′-(pyrimidin-5-ylmethoxy)-[1,1′-biphenyl]-3-yl)methoxy)-2-(((pyridazin-3-ylmethyl)amino)methyl)phenoxy)methyl)nicotinonitrile]
13 | 2.3 nM | Cc1nnc(CNCc2cc(Cl)c(OCc3cccc(-c4cccc(OCC5CCCN(C)C5)c4Cl)c3C)cc2OCc2cncc(C#N)c2)[nH]1 (centres unmarked) [Example 2604, 5-((4-chloro-5-((2′-chloro-2-methyl-3′-((1-methylpiperidin-3-yl)methoxy)-[1,1′-biphenyl]-3-yl)methoxy)-2-((((5-methyl-4H-1,2,4-triazol-3-yl)methyl)amino)methyl)phenoxy)methyl)nicotinonitrile]
14 | 2 nM | Cc1c(COc2cc(OCc3cncc(C#N)c3)c(CNCc3ncco3)cc2Cl)cccc1-c1cccc(OCC2CCCN(C)C2)c1Cl (centres unmarked) [Example 2590, 5-((4-chloro-5-((2′-chloro-2-methyl-3′-((1-methylpiperidin-3-yl)methoxy)-[1,1′-biphenyl]-3-yl)methoxy)-2-(((oxazol-2-ylmethyl)amino)methyl)phenoxy)methyl)nicotinonitrile]
15 | 3.9 nM | Cc1c(COc2cc(OCc3cnccn3)c(CNCc3cccnn3)cc2Cl)cccc1-c1cccc(OCC2CCCN(C)C2)c1Cl (centres unmarked) [Example 2058, N-(5-chloro-4-((2′-chloro-2-methyl-3′-((1-methylpiperidin-3-yl)methoxy)-[1,1′-biphenyl]-3-yl)methoxy)-2-(pyrazin-2-ylmethoxy)benzyl)-1-(pyridazin-3-yl)methanamine]
16 | 0.8 nM | Cc1c(COc2cc(OCc3cncc(C#N)c3)c(CNCc3ccc4c(N)n[nH]c4c3)cc2Cl)cccc1-c1cccc(OCC2CCCN(C)C2)c1Cl (centres unmarked) [Example 2610, 5-((2-((((3-amino-1H-indazol-6-yl)methyl)amino)methyl)-4-chloro-5-((2′-chloro-2-methyl-3′-((1-methylpiperidin-3-yl)methoxy)-[1,1′-biphenyl]-3-yl)methoxy)phenoxy)methyl)nicotinonitrile]
17 | 30.1 nM | CCc1csc(CN(C)Cc2cc(Cl)c(OCc3cccc(-c4cccc(OCCCN5CC[C@@H](O)C5)c4C)c3C)cc2OCc2cncc(C#N)c2)n1 [Example 2553, (R)-5-((4-chloro-2-((((4-ethylthiazol-2-yl)methyl)(methyl)amino)methyl)-5-((3′-(3-(3-hydroxypyrrolidin-1-yl)propoxy)-2,2′-dimethyl-[1,1′-biphenyl]-3-yl)methoxy)phenoxy)methyl)nicotinonitrile]
18 | 5.6 nM | Cc1c(COc2cc(OCc3cccnn3)c(CNCc3cn[nH]c3)cc2Cl)cccc1-c1cccc(OCC2CCCN(C)C2)c1Cl (centres unmarked) [Example 2054, N-((1H-pyrazol-4-yl)methyl)-1-(5-chloro-4-((2′-chloro-2-methyl-3′-((1-methylpiperidin-3-yl)methoxy)-[1,1′-biphenyl]-3-yl)methoxy)-2-(pyridazin-3-ylmethoxy)phenyl)methanamine]
19 | 3.6 nM | Cc1c(COc2cc(OCc3cncc(C#N)c3)c(CN3CCC(c4cc[nH]n4)C3)cc2Cl)cccc1-c1cccc(OCCCN2CC[C@@H](O)C2)c1C (stereo partly drawn) [Example 2513, 5-((2-((3-(1H-pyrazol-3-yl)pyrrolidin-1-yl)methyl)-4-chloro-5-((3′-(3-((R)-3-hydroxypyrrolidin-1-yl)propoxy)-2,2′-dimethyl-[1,1′-biphenyl]-3-yl)methoxy)phenoxy)methyl)nicotinonitrile]
20 | 4.7 nM | Cc1c(COc2cc(OCc3cncc(C#N)c3)c(CNCc3ncc4ccccn34)cc2Cl)cccc1-c1cccc(OCCCN2CC[C@@H](O)C2)c1C [Example 2565, (R)-5-((4-chloro-5-((3′-(3-(3-hydroxypyrrolidin-1-yl)propoxy)-2,2′-dimethyl-[1,1′-biphenyl]-3-yl)methoxy)-2-(((imidazo[1,5-a]pyridin-3-ylmethyl)amino)methyl)phenoxy)methyl)nicotinonitrile]

Reference: patent US20240124417A1, “COMPOUNDS USEFUL AS IMMUNOMODULATORS” (Bristol-Myers Squibb Company, priority 2019, published 2024)
